Square brackets hold non-standard residues; d marks the D form. Peptide text beside a SMILES is read from it. Nle = CCCC[C@H](N)C(=O)O
Experiments:
[1] = tested on: p53 and p21 protein levels in HLF cells; test: Western blot of p53 and p21 levels; type: cell-based; settings: 17 hours
Description: (§1) FIG. 5 contains the results of Western blots measuring the levels of p53 and p21 in rAd-p53 infected cells in the presence of varying concentrations of CI-1. Above each lane is a “+” of “−” which indicates if the cells were pulsed with 1×10^9 rAd-p53 for one hour (+) or not (−). The row of numbers below indicates the μM concentration of CI-1 to which the cells were exposed at 17 hours post-infection. The upper row of chemiluminescent signals provides the levels of p53 while the lower row of chemiluminescent signals provides the levels of p21. […] When 5 μM CI-1 was added with rAd-p53, the levels of p53 increased two fold, as quantitated on NIH imaging.
(§2) At 17 hours post treatment, cells were lysed in protein lysis buffer (50 mM tris, 250 mM NaCl, 50 mM NaF, 5 mM EDTA and 0.1% NP-40 with 1 mM PMSF). Cell lysates were subjected to electrophoresis. 10 μg of protein was added per lane on a 12% polyacrylamide gel and transfered onto nitrocellulose membranes. The membranes were subjected to western blot analysis using antibodies specific for p53 or p21 (Calbiochem, p53 antibody Ab-6, and p21 antibody Ab-7). HRP-conjugated secondary antibody (Amersham) was added for one hour at which time the blots were washed. Blots were developed using enhanced chemiluminescence detection system (Amersham) and quantitated using NIH imaging analysis.

[2] = tested on: p53 and p21 protein levels in RKO cells; test: Western blot of p53 and p21 levels; type: cell-based; settings: 17 hours
Description: as §1, §2

[3] = tested on: JC (mouse mammary carcinoma, p53 mutant) cells; test: Rodent cancer model, flank tumors; type: in vivo, mice; settings: calpain inhibitor alone, 60 mg/kg intraperitoneal
Description: The in vitro results presented above were confirmed in a rodent cancer model. Briefly, healthy immune competent mice were injected with JC (mouse mammary carcinoma, p53 mutant) cells and tumors were permitted to form. This is a particularly rigorous model as JC cells are particularly difficult to infect and the mouse is an immunocompetent mouse capable of producing an immune response to the human adenovirus and/or the human p53 transgene. After 2 weeks, flank tumors were present in all animals. Calpain inhibitor was administered via intraperitoneal injection to a concentration of approximately 60 mg/kg approximately 24 hours prior to administration of the recombinant rAd-p53 virus. Appropriate control viruses and solutions were employed. The mice were injected with 1×10^10 particles of rAd-p53 per injection intratumorally in combination with intraperitoneally injected CI-1 at a concentration of 60 mg/kg for a period of 5 days, 2 days off and then for 5 more days. Tumor growth/regression was evaluated at Day 4, Day 8 and Day 11 post-treatment (FIGS. 12 A,B and C respectively). In all instances the rate of decrease in tumor growth was at least 40% reduction in fold increase in tumor volume in mice treated with calpain inhibitor 1 in addition to FTCB, in comparison with the mice treated with the FTCB vector alone.

CTL response = test: In vivo CTL response to recombinant adenoviral vector (51Cr release); parameters: species or system C57BL/6 mice; settings: for CTL response to the adenoviral vector: 60 mg/Kg or 120 mg/Kg calpain inhibitor 1, 9×10^9 particles/animal iv, spleens day 10
Description: FIG. 11 is a graphical results of the cytotoxicity assay of CTL against ACN53 transduced EL-4 targets in C57/B16 mice injected with 60 mg/Kg (A) or 120 mg/Kg (♦) calpain inhibitor 1 in combination with ACN53 as more fully described in Example 7 herein. Percent lysis is plotted on the vertical axis and time on the horizontal axis. The ACN53 alone is represented by the circles (●) and the naive control level is represented by the squares (▪).
The applicants hypothesized that the combined effect on MHC Class 1 presentation and apoptosis of non-transduced will reduce the immune response to the viral vectors. This was confirmed in a in vivo mouse model in substantial accordance with the teaching of example […] herein. The results are shown in the FIG. 8 of the attached drawings.
C57BU6 mice (2 mice per dose) were injected intravenously with 9×10^9 particles/animal (iv/200 μl) of a recombinant adenoviral vector encoding the βgal reporter gene under control of the CMV promoter. Naive mice were employed as controls. The spleens were harvested at day 10 for immunological analysis. Livers were harvested for analysis of β-gal transgene expression. Cells were be dispersed to a single cell suspension and washed 3 times. The cells were be resuspended complete RPMI-10 (RPMI+10% FCS, 2ME (5 μM), glutamine, Na pyruvate, Pen/Strep). Responder CTL cells were seeded in 24-well plates at 8×10^6 cells per well in 1.5 ml RPMI-5%. The responder CTL cells were restimulated by adding syngeneic (C57BL/6) spleen cells that were transduced for 6 hours with 2×10^10 BGCG particles/ml and then mitomycin treated to inhibit proliferation and/or activation of stimulator cell populations. The responder CTL were co-cultured with the stimulator cells at 37° C. in a humidified incubator for seven days. […] The Effector CTL cells were harvested, washed 2 times and counted to enumerate the CTL effector cells. […] The Effector CTL cells were co-cultivated with the target cells for 6 hours and the specific ^51Cr release were determined by counting harvested supernates (100 μl) in the γ counter.

SMILES: CCCC[C@@H](C=O)NC(=O)[C@H](CC(C)C)NC(=O)[C@H](CC(C)C)NC(C)=O [CI-1, N-acetyl-leu-leu-norleucinal] (Ac-Leu-Leu-[Nle]-aldehyde)
- increase in levels of p53 (NIH imaging) ([1]; 5 μM CI-1 added with 1×10^9 rAd-p53, versus rAd-p53 alone): two fold
- increase in levels of p53 and p21 ([1]; 10 μM CI-1 added with 1×10^9 rAd-p53): approximately three fold
- increase in p53 and p21 levels ([2]; 5 μM CI-1 with 1×10^9 rAd-p53): two fold increase
- increase in p53 levels over rAd-p53 alone ([2]; 10 μM CI-1 with 1×10^9 rAd-p53): about a five fold increase
- antitumor effects [3]: significant antitumor effects
- CTL response to the adenoviral vector (CTL response): significant inhibition
- CTL response to the adenoviral vector (CTL response; listed as calpain inhibitor 1): substantially reduced
- relative number of CTL lytic-units (effector to target ratio giving 25% killing) (CTL response; treatment with calpain inhibitor CI-1, BGCG injected mice): greater than a five-fold decrease
